Experiments:
Format in all cases: cell-based
[1] = test system: E. coli DH5α; test: Antibacterial activity: MIC and growth curve against E. coli DH5α in 96-well plate; conditions: minimal inhibitory concentration against E. coli DH5α; 96-well plate, 5×10^5 CFU/mL, 37° C., judged after 8 h
Outline: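 MIC taken as lowest protein level with no bacterial growth, tracked by A600 every 30 min during 37 °C, 175 rpm culture. Two-fold protein series 50-12.5 μg/mL final, triplicate wells, against 5×10^5 CFU/mL of LB-washed mid-log cells.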

[2] = test system: E. coli BL21; test: MIC against Gram-negative bacteria: E. coli BL21
Outline: (§1)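 Read-out is absence of bacterial growth, with MIC set at the lowest recombinant protein concentration achieving it. Bacteria, pre-grown in LB to McFarland 0.5 and resuspended, were exposed at 5×10^5 CFU/mL to two-fold diluted human EGF domain proteins in triplicate at 37° C, 175 rpm.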

[3] = test system: Pseudomonas aeruginosa; test: MIC against Gram-negative bacteria: Pseudomonas aeruginosa; conditions: for MIC / MIC (μg/mL) P. aeruginosa: P. aeruginosa
Outline: as §1

[4] = test system: Klebsiella pneumonia; test: MIC against Gram-negative bacteria: Klebsiella pneumonia; conditions: for MIC / MIC (μg/mL) K. pneumonia: K. pneumonia
Outline: as §1

[5] = test system: Enterobacter cloacae; test: MIC against Gram-negative bacteria: Enterobacter cloacae; conditions: for MIC / MIC (μg/mL) E. cloacae: E. cloacae
Outline: as §1

[6] = test system: Aeromonas hydrophila; test: MIC against Gram-negative bacteria: Aeromonas hydrophila; conditions: for MIC / MIC (μg/mL) A. hydrophila: A. hydrophila
Outline: as §1

[7] = test system: Citrobacter diversus; test: MIC against Gram-negative bacteria: Citrobacter diversus; conditions: for MIC / MIC (μg/mL) C. diversus: C. diversus
Outline: as §1

[8] = test system: Moraxella catarrhalis; test: MIC against Gram-negative bacteria: Moraxella catarrhalis; conditions: for MIC / MIC (μg/mL) M. catarrhalis: M. catarrhalis
Outline: as §1

[9] = test system: Proteus mirabilis; test: MIC against Gram-negative bacteria: Proteus mirabilis; conditions: for MIC / MIC (μg/mL) P. mirabilis: P. mirabilis
Outline: as §1

[10] = test system: Proteus vulgaris; test: MIC against Gram-negative bacteria: Proteus vulgaris; conditions: for MIC / MIC (μg/mL) P. vulgaris: P. vulgaris
Outline: as §1

[11] = test system: Serratia marcescens; test: MIC against Gram-negative bacteria: Serratia marcescens; conditions: for MIC / MIC (μg/mL) S. marcescens: S. marcescens
Outline: as §1

[12] = 96-well plate, 5×10^5 CFU/mL, 37° C., 10 h
[13] = E. coli BL21, 10 h cultivation at 37° C., 5×10^5 CFU/mL
[14] = 10 h cultivation at 37° C., 5×10^5 CFU/mL
[15] = 10 h cultivation at 37° C., 5×10^5 CFU/mL, two-fold serial dilution

## PRT923 (LDDACISNPCHKGALCDTNPLNGQYICTCPQGYKGADCT; listed as Homo sapiens)
[1]
  MIC: 25 µg/mL
[2]; E. coli BL21, 10 h cultivation at 37° C.
  MIC: 50 µg/mL
[3]; 10 h cultivation at 37° C.
  MIC: 25 µg/mL
[4]; 10 h cultivation at 37° C.
  MIC: 25 µg/mL
[5]; 10 h cultivation at 37° C.
  MIC: 12.5 µg/mL
[6]; 10 h cultivation at 37° C.
  MIC: 50 µg/mL
[7]; 10 h cultivation at 37° C.
  MIC: 25 µg/mL
[8]; 10 h cultivation at 37° C.
  MIC: 12.5 µg/mL
[9]; 10 h cultivation at 37° C.
  MIC: 25 µg/mL
[10]; 10 h cultivation at 37° C.
  MIC: 50 µg/mL
[11]; 10 h cultivation at 37° C.
  MIC: 25 µg/mL

## PRT711 (GDNMCRVNNGGCSTLCLAIPGGRVCACADNQLLDENGTTCT; listed as Homo sapiens)
[1]
  MIC: 25 µg/mL
[2]; [12]
  MIC E. coli BL21: 12.5 µg/mL
[3]; [12]
  MIC P. aeruginosa: 50 µg/mL
[4]; [12]
  MIC K. pneumonia: 12.5 µg/mL
[5]; [12]
  MIC E. cloacae: 25 µg/mL
[6]; [12]
  MIC A. hydrophila: 50 µg/mL
[7]; [12]
  MIC C. diversus: 12.5 µg/mL
[8]; [12]
  MIC M. catarrhalis: 50 µg/mL
[9]; [12]
  MIC P. mirabilis: 12.5 µg/mL
[10]; [12]
  MIC P. vulgaris: 25 µg/mL
[11]; [12]
  MIC S. marcescens: 50 µg/mL

## PRT769 (CNGVDHGCEFQCVSEGLSYRCLCPEGRQLQADGKSC; listed as Homo sapiens)
[1]
  MIC: 12.5 µg/mL
[2]; [13]
  MIC (μg/mL) E. coli BL21: 12.5 µg/mL
[3]; [14]
  MIC (μg/mL) P. aeruginosa: 12.5 µg/mL
[4]; [14]
  MIC (μg/mL) K. pneumonia: 25 µg/mL
[5]; [14]
  MIC (μg/mL) E. cloacae: 12.5 µg/mL
[6]; [14]
  MIC (μg/mL) A. hydrophila: 25 µg/mL
[7]; [14]
  MIC (μg/mL) C. diversus: 12.5 µg/mL
[8]; [14]
  MIC (μg/mL) M. catarrhalis: 12.5 µg/mL
[9]; [14]
  MIC (μg/mL) P. mirabilis: 12.5 µg/mL
[10]; [14]
  MIC (μg/mL) P. vulgaris: 25 µg/mL
[11]; [14]
  MIC (μg/mL) S. marcescens: 12.5 µg/mL

## PRT1181 (KEAVCKQGCNLLHGGCTVPGECRCSYGWQGRFCD; listed as Homo sapiens)
[1]
  MIC: 12.5 µg/mL
[2]; [15]
  MIC E. coli BL21: 50 µg/mL
[3]; [15]
  MIC P. aeruginosa: 12.5 µg/mL
[4]; [15]
  MIC K. pneumonia: 50 µg/mL
[5]; [15]
  MIC E. cloacae: 25 µg/mL
[6]; [15]
  MIC A. hydrophila: 25 µg/mL
[7]; [15]
  MIC C. diversus: 12.5 µg/mL
[8]; [15]
  MIC M. catarrhalis: 50 µg/mL
[9]; [15]
  MIC P. mirabilis: 100 µg/mL
[10]; [15]
  MIC P. vulgaris: 50 µg/mL
[11]; [15]
  MIC S. marcescens: 25 µg/mL

## PRT1186 (KNSSCLPNPCVNGGTCVGSGASFSCICRDGWEGRTCT; listed as Homo sapiens)
[1]
  MIC: 50 µg/mL
[2]; [15]
  MIC E. coli BL21: 25 µg/mL
[3]; [15]
  MIC P. aeruginosa: 12.5 µg/mL
[4]; [15]
  MIC K. pneumonia: 25 µg/mL
[5]; [15]
  MIC E. cloacae: 50 µg/mL
[6]; [15]
  MIC A. hydrophila: 12.5 µg/mL
[7]; [15]
  MIC C. diversus: 25 µg/mL
[8]; [15]
  MIC M. catarrhalis: 50 µg/mL
[9]; [15]
  MIC P. mirabilis: 12.5 µg/mL
[10]; [15]
  MIC P. vulgaris: 50 µg/mL
[11]; [15]
  MIC S. marcescens: 12.5 µg/mL

## PRT1223 (LEGACTRSPCQHGGTCMDYWSWQQCHCKEGLTGKYCE; listed as Homo sapiens)
[1]
  MIC: 50 µg/mL
[2]; E. coli BL21, 96-well plate, 5×10^5 CFU/mL, 37° C., 10 h
  MIC against E. coli BL21: 25 µg/mL
[3]; Pseudomonas aeruginosa, 96-well plate, 5×10^5 CFU/mL, 37° C., 10 h
  MIC against P. aeruginosa: 12.5 µg/mL
[4]; Klebsiella pneumonia, 96-well plate, 5×10^5 CFU/mL, 37° C., 10 h
  MIC against K. pneumonia: 50 µg/mL
[5]; Enterobacter cloacae, 96-well plate, 5×10^5 CFU/mL, 37° C., 10 h
  MIC against E. cloacae: 25 µg/mL
[6]; Aeromonas hydrophila, 96-well plate, 5×10^5 CFU/mL, 37° C., 10 h
  MIC against A. hydrophila: 100 µg/mL
[7]; Citrobacter diversus, 96-well plate, 5×10^5 CFU/mL, 37° C., 10 h
  MIC against C. diversus: 25 µg/mL
[8]; Moraxella catarrhalis, 96-well plate, 5×10^5 CFU/mL, 37° C., 10 h
  MIC against M. catarrhalis: 50 µg/mL
[9]; Proteus mirabilis, 96-well plate, 5×10^5 CFU/mL, 37° C., 10 h
  MIC against P. mirabilis: 12.5 µg/mL
[10]; Proteus vulgaris, 96-well plate, 5×10^5 CFU/mL, 37° C., 10 h
  MIC against P. vulgaris: 50 µg/mL
[11]; Serratia marcescens, 96-well plate, 5×10^5 CFU/mL, 37° C., 10 h
  MIC against S. marcescens: 12.5 µg/mL

## PRT302 (DIDECVEEPEICALGTCSNTEGSFKCLCPEGFSLSSSGRRCQ; listed as Homo sapiens)
[1]
  MIC: 12.5 µg/mL
[2]; [13]
  MIC: 25 µg/mL
[3]; [14]
  MIC: 12.5 µg/mL
[4]; [14]
  MIC: 25 µg/mL
[5]; [14]
  MIC: 12.5 µg/mL
[6]; [14]
  MIC: 12.5 µg/mL
[7]; [14]
  MIC: 12.5 µg/mL
[8]; [14]
  MIC: 12.5 µg/mL
[9]; [14]
  MIC: 12.5 µg/mL
[10]; [14]
  MIC: 50 µg/mL
[11]; [14]
  MIC: 12.5 µg/mL

## PRT699 (DVDECSSGAPPCGPHGHCTNTEGSFRCSCAPGYRAPSGRPGPCA; listed as Homo sapiens)
[1]
  MIC: 50 µg/mL
[2]; [12]
  MIC E. coli BL21: 25 µg/mL
[3]; [12]
  MIC P. aeruginosa: 12.5 µg/mL
[4]; [12]
  MIC K. pneumonia: 25 µg/mL
[5]; [12]
  MIC E. cloacae: 50 µg/mL
[6]; [12]
  MIC A. hydrophila: 12.5 µg/mL
[7]; [12]
  MIC C. diversus: 50 µg/mL
[8]; [12]
  MIC M. catarrhalis: 25 µg/mL
[9]; [12]
  MIC P. mirabilis: 12.5 µg/mL
[10]; [12]
  MIC P. vulgaris: 25 µg/mL
[11]; [12]
  MIC S. marcescens: 50 µg/mL

## PRT202 (KSTNCSSKCKGHAVCDHELQCQCEEGWIPPDCD; listed as Homo sapiens)
[1]
  MIC: 25 µg/mL
[2]; [13]
  MIC (μg/mL) E. coli BL21: 12.5 µg/mL
[3]; [14]
  MIC (μg/mL) P. aeruginosa: 12.5 µg/mL
[4]; [14]
  MIC (μg/mL) K. pneumonia: 12.5 µg/mL
[5]; [14]
  MIC (μg/mL) E. cloacae: 12.5 µg/mL
[6]; [14]
  MIC (μg/mL) A. hydrophila: 12.5 µg/mL
[7]; [14]
  MIC (μg/mL) C. diversus: 12.5 µg/mL
[8]; [14]
  MIC (μg/mL) M. catarrhalis: 12.5 µg/mL
[9]; [14]
  MIC (μg/mL) P. mirabilis: 25 µg/mL
[10]; [14]
  MIC (μg/mL) P. vulgaris: 12.5 µg/mL
[11]; [14]
  MIC (μg/mL) S. marcescens: 25 µg/mL

## PRT626 (CDCQSAGSLHLQCDDTGTCACKPTVTGWKCDRCLPGFHSLSEGGCRP; listed as Homo sapiens)
[1]
  MIC: 25 µg/mL
[2]; [12]
  MIC E. coli BL21: 50 µg/mL
[3]; [12]
  MIC P. aeruginosa: 25 µg/mL
[4]; [12]
  MIC K. pneumonia: 12.5 µg/mL
[5]; [12]
  MIC E. cloacae: 25 µg/mL
[6]; [12]
  MIC A. hydrophila: 50 µg/mL
[7]; [12]
  MIC C. diversus: 25 µg/mL
[8]; [12]
  MIC M. catarrhalis: 12.5 µg/mL
[9]; [12]
  MIC P. mirabilis: 25 µg/mL
[10]; [12]
  MIC P. vulgaris: 50 µg/mL
[11]; [12]
  MIC S. marcescens: 25 µg/mL

## PRT616 (CDCNGKSRQCIFDRELHRQTGNGFRCLNCNDNTDGIHCEKCKNGFYRHRERDRCLP; listed as Homo sapiens)
[1]
  MIC: 25 µg/mL
[2]; [12]
  MIC E. coli BL21: 12.5 µg/mL
[3]; [12]
  MIC P. aeruginosa: 25 µg/mL
[4]; [12]
  MIC K. pneumonia: 50 µg/mL
[5]; [12]
  MIC E. cloacae: 12.5 µg/mL
[6]; [12]
  MIC A. hydrophila: 25 µg/mL
[7]; [12]
  MIC C. diversus: 12.5 µg/mL
[8]; [12]
  MIC M. catarrhalis: 25 µg/mL
[9]; [12]
  MIC P. mirabilis: 12.5 µg/mL
[10]; [12]
  MIC P. vulgaris: 25 µg/mL
[11]; [12]
  MIC S. marcescens: 12.5 µg/mL

From patent publication US9833497B2, “Human originated EGF domain proteins and use of the same” (CHENGDU SOURCEBIO LIMITED-LIABILITY COMPANY, priority 2013, dated 2017)
